The values below come from patent US4008219A, “4-Benzazonine derivatives and process for preparation thereof” (Nihon Iyakuhin Kogyo Co., Ltd., priority 1973, dated 1977).

Structures can show the parent of a compound that is named as a salt.

The subject of data set [1] is guinea pigs. Kind of data set: Antitussive effect, Chemical Stimulus Method (SO2 gas). In kind it is in vivo, guinea pig. As to conditions: guinea pigs, SO2 gas. The source says: (§1) Results of comparative tests where the medicinal effects of compounds of this invention were compared with those of known compounds such as pentazocine and codeine phosphate by employing mice and guinea pigs as the test animals are shown in the following Tables I and II.
(§2) Comparison of Antitusive Effects
2) Takagi et al modification [Journal of Pharmaceutical Society of Japan,
80, 1497 (1960)] of the test method of H. Friebel, C. Reichle and A. V.
Gravenitz [Archiv Fur experimentalle Phathologie und Pharmakologie,
Naunyn-Schmiede-berg's, 224,384 (1955)], in which the test compound was
hypodermically injected into guinea pigs, 30 minutes after the injection
the quinea pigs were put into a desiccator filled with SO2 gas and
kept in the desiccator for 1 minute, then the guinea pigs were put into
another vessel and the degree of coughing was examined.

The subject of data set [2] is mice of the ddN-series. Kind of data set: Analgesic test, Heat Stimulus Method (Hot Plate Method). The data set is classed as in vivo, mouse. More on the design: reference not given here. To be noted: hypodermic injection, comparative value, scale not given. The procedure: as §1
Heat Stimulus Method^2)
(§3) Tested Animal: mice of the ddN-series, .male., 20 ± 1 experimental
(§4) Conditions: temperature of 24 ± 1° C., relative humidity of 65
^2) G. Woolfe and A. D. Mac Donald; Journal of Pharmacology and […]
In general terms: Thermal pain tests record how soon the animal reacts.

The next data set in a line: Acute Toxicity. To be noted: in vivo; mouse, intravenous injection. As to the method: as §3, §4
Data set [3] relates to guinea pigs. Briefly: Antitussive effect, Mechanical Stimulus Method. The data set is classed as in vivo, guinea pig.
Text: as §1, §2
Mechanical Stimulus Method^1)
1) Takagi et al modification [Journal of the Pharmaceutical Society of
Japan, 80, 1497 (1960)] of the test method of H. Konzett and E. Rothlin
[Experientia, 10, 472 (1954)], in which urethane was hypodermically
injected (15 mg/Kg) into guinea pigs and swine hairs were inserted into
the trachea to impart stimulus.

Data set [4] relates to mice of the ddN-series. Kind of data set: Analgesic test, Chemical Stimulus Method (Writhing Method). The data set is classed as in vivo, mouse. More on the design: scale not given here. As to conditions: interabdominal injection, comparative value, scale not given. The procedure:
as §1
Chemical Stimulus Method^1)
(interabdominal injection)
as §3, §4
^1) R. Koster, M. Anderson and E. J. De Beer, Federation Proceedings, […]
On the technique in general: In writhing tests, fewer writhes than in controls are read as antinociception.

Data set [5] has as its system mice of the ddN-series. Briefly: Analgesic test, Pressure Stimulus Method. In kind it is in vivo, mouse. To be noted: hypodermic injection, comparative value, pentazocine 1.0. The procedure:
as §1
Pressure Stimulus Method^3)
R (hypodermic injection)
as §3, §4
^3) A. F. Green, P. A. Yound and E. I. Godfrey; British Journal of
Pharmacology and Chemotherapy, 6, 572 (1951)

A short description of data set [6]: Hygroscopicity of the salt. In kind it is physicochemical. To be noted: crystalline salt, cis-form.

For the compound `C=CCN1CCC2CC(C1)C(O)c1ccccc12` (stereo not shown) [R=H, R1=H, R2=H, CH2R3=CH2CHCH2, R4=OH, 4-allyl-2,3,4,5,6,7-hexahydro-1,6-methano-1H-4-benzazonin-7-ol], the 50% effective dose (ED50) is 15.3 mg/kg in the data set on guinea pigs [1] (Cavia porcellus, sc, 0.5 h, hypodermic injection, 1 minute, 30 minutes after injection, read-out: ED50, Chemical Stimulus Method (antitussive)) and 18.9 mg/kg in the data set with guinea pigs [3] (Cavia porcellus, swine hairs inserted into the trachea). Besides, the “Effect Ratio to Codeine Phosphate, Chemical Stimulus Method” value with guinea pigs [1] (codeine phosphate = 100) is recorded as 86.7. The solubility in water result in the data set “Solubility in water” is on record as “water soluble”. Also, the “Heat Stimulus Method (Hot Plate Method)” value in the data set with mice of the ddN-series [2] was found to be 1.4. Moreover, the 50% lethal dose (LD50) in the data set “Acute Toxicity” worked out at 58 mg/kg. In addition, the “Effect Ratio to Codeine Phosphate, Mechanical Stimulus Method” value with guinea pigs [3] (codeine phosphate = 100) was 76.6. The “Chemical Stimulus Method (Writhing Method)” value with mice of the ddN-series [4] is recorded as 1.2. The “Pressure Stimulus Method” value with mice of the ddN-series [5] came out at 1.4.
For the compound `CC1C2Cc3ccc(O)cc3C1(C)CCN(CCc1ccccc1)C2` (stereo not shown) [Example 87], the hygroscopicity entry in data set [6] is reported as “being hygro-”.
In the case of `CC1C2Cc3ccc(O)cc3C1(C)CCN(C)C2` (stereo not shown) [Example 90], in data set [6], the hygroscopicity result was “being hygro-”.
In the case of `CC1C2Cc3ccccc3C1(C)CCN(C)C2` (stereo not shown) [Example 23], the hygroscopicity result in data set [6] is “hygroscopic”.
With `CC1C2CN(C)CCC1(C)c1ccccc1C2O` (stereo not shown) [Example 15], the hygroscopicity entry in data set [6] was “hygroscopic”.
Regarding `CC1C2Cc3ccc(O)cc3C1(C)CCN(C)C2` (stereo not shown) [Example 20], the hygroscopicity entry in data set [6] is listed as “hygroscopic”.
In the case of `CCC12CCN(C)CC(Cc3ccc(O)cc31)C2C` (stereo not shown) [Example 22], in data set [6], the hygroscopicity entry is recorded as “hygroscopic”.
Consider `CCC12CCN(C)CC(C(O)c3ccc(OC)cc31)C2C` (stereo not shown) [Example 10, 4,12-dimethyl-1-ethyl-10-methoxy-2,3,4,5,6,7-hexahydro-1,6-methano-1H-4-benzazonin-7-ol], for which, in data set [6], the hygroscopicity result is recorded as “very hygroscopic”.
Regarding `CC(C)CCN1CCC2(C)c3cc(O)ccc3CC(C1)C2C` (stereo not shown) [Example 89], in data set [6], the hygroscopicity result is listed as “being hygro-”.
On to `COc1ccc2c(c1)C1(C)CCN(C)CC(C2O)C1C` (stereo not shown) [Example 12], for which the hygroscopicity result in data set [6] was “hygroscopic”.
For the compound `OC1c2ccccc2C2CCN(CCc3ccccc3)CC1C2` (stereo not shown) [Example 59, hydrobromide], the solubility in water result in “Solubility in water” is recorded as “water-soluble”.

As usually defined, the ED50 is the dose at which the effect has come halfway, by size or by number of responders. A word on the LD50: it is the dose at which mortality reaches 50%.
